From patent publication US10653688B2, “6-(6-membered heteroaryl and aryl)isoquinolin-3-yl carboxamides and preparation and use thereof” (Samumed, LLC, priority 2017, dated 2020)
Where two headings read alike, the source gives them in different places.

Experiments:
recombinant GSK3β kinase = recombinant GSK3β kinase (Homo sapiens (Human), UniProt P49841); test: GSK3β kinase assay (Ser/Thr 09 peptide Z-lyte, FRET); assay type: biochemical;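 also: FRET read-out as coumarin over fluorescein emission ratio, compounds incubated one hour at room temperature, IC50 from dose-response curve fit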
Sequence of recombinant GSK3β kinase (P49841 whole entry): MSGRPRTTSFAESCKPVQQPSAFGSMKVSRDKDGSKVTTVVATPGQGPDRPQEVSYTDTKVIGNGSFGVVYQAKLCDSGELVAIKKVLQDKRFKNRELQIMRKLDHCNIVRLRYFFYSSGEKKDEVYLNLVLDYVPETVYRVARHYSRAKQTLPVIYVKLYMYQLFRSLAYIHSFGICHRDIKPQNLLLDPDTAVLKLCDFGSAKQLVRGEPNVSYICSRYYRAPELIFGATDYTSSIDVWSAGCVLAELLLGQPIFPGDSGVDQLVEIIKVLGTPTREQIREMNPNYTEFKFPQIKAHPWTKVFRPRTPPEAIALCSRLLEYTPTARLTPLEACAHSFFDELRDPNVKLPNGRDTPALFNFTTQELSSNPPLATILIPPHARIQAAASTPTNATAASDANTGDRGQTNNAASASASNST

[1] = system: SW480 colon carcinoma cells; test: Cell viability assay (CellTiter-Glo); assay type: cell-based, human; settings: for EC50: four days, CellTiter-Glo
Procedure: SW480 colon carcinoma cells were transduced with a lentiviral vector expressing luciferase with a human Sp5 promoter consisting of a sequence of eight TCF/LEF binding sites. SW480 cells stably expressing the Sp5-Luc reporter gene and a hygromycin resistance gene were selected by treatment with 150 μg/mL of hygromycin for 7 days. These stably transduced SW480 cells were expanded in cell culture and used for all further screening activities.
For the Cell Viability Assays, the cells were plated at 2,000 cells/well in 384-well plates with a DMEM medium containing 1% fetal bovine serum, and 1% Penicillin-Streptomycin and incubated for […] at 37° C. and 5% CO2. Eight replicates of DMSO-treated cells served as controls and cells treated with compound were performed in duplicate.
After incubation, 10 μL of CellTiter-Glo (Promega) was added to each well allowed to incubate for approximately 12 minutes. This reagent “results in cell lysis and generation of a luminescent signal proportional to the amount of ATP present. The amount of ATP is directly proportional to the number of cells present in culture, in agreement with previous reports. The CellTiter-Glo Assay generates a “glow-type” luminescent signal, produced by the luciferase reaction (Promega.com)”.

[2] = system: IL-6 in human peripheral blood mononuclear cells (huPBMCs); test: IL-6 inhibition in LPS-stimulated human peripheral blood mononuclear cells (HTRF); assay type: cell-based; settings: for EC50: LPS 50 ng/mL, 22 hours, IL-6 HTRF; for inhibition at 10 µM: read-out: percent inhibition at 10 μM (given for EC50 >10 μM), LPS, IL-6, 10 μM
Procedure: Human Peripheral Blood Mononuclear Cells:
Fresh Normal PB MNC (Catalog # PB001, AllCells, Alameda, Calif.) were shipped overnight at 4° C. and resuspended in Roswell Park Memorial Institute (RPMI) 1640 Medium, with GlutaMAX Supplement (Catalog #61870127, ThermoFisher Scientific, Waltham, Mass.) supplemented with 1% Penicillin-Streptomycin (Catalog #15140163, ThermoFisher Scientific, Waltham, Mass.) and 1% fetal bovine serum (FBS) (Catalog #16140089, ThermoFisher Scientific, Waltham, Mass.) assay media.
Fresh normal human peripheral blood mononuclear cells (huPBMCs) were resuspended in 1% FBS-RPMI assay media with 1% Penicillin-Streptomycin 1% to a cell concentration of 1×10e6 cells/mL. […] 50 ng/mL of Lipopolysaccharides from Escherichia coli 0111:B4 (Catalog # L5293-2ML, Sigma-Aldrich, St. Louis, Mo.) was added after 2 hours and cells were incubated for another 22 hours at 37° C.-5% CO2. After 22 hour incubation, a mixture of anti-IL6 XL665 and anti-IL-6 Cryptate diluted in reconstitution buffer (Catalog #62IL6PEC, Cisbio Inc., Bedford, Mass.) was added to each well. Following incubation for 3 hours at room temperature, Homogeneous Time-Resolved Fluorescence (HTRF) was measured using the Envision (Perkin Elmer, Shelton, Conn.) at 665 nm and […]. The ratio of fluorescence at 665 nm to 620 nm was used as a readout for IL-6 quantification. All samples were processed in duplicate. Readings were normalized to DMSO treated cells and normalized activities were utilized for EC50 calculations. EC50 was determined using software generated by Dotmatics Limited (Windhill Bishops Stortford Herts, UK) using the Levenberg-Marquardt 4 parameter fitting procedure with finite different gradients.

[3] = target: recombinant DYRK1A kinase (Homo sapiens (Human), UniProt Q13627); test: DYRK1A kinase assay (Ser/Thr 18 peptide Z-lyte, FRET)
[4] = system: Wnt activity (SW480 colon carcinoma cells stably expressing the Sp5-Luc reporter gene); test: Wnt activity screening assay (Sp5-Luc reporter gene assay); assay type: cell-based, human; settings: for EC50: 36 to 48 hours; for inhibition at 10 µM: read-out: percent inhibition at 10 μM (given for EC50 >10 μM), 10 μM
Text: The screening assay for Wnt activity is described as follows. Reporter cell lines can be generated by stably transducing cancer cell lines (e.g., colon cancer) or primary cells (e.g., IEC-6 intestinal cells) with a lentiviral construct that includes a Wnt-responsive promoter driving expression of the firefly luciferase gene.
SW480 colon carcinoma cells were transduced with a lentiviral vector expressing luciferase with a human Sp5 promoter consisting of a sequence of eight TCF/LEF binding sites. SW480 cells stably expressing the Sp5-Luc reporter gene and a hygromycin resistance gene were selected by treatment with 150 μg/mL of hygromycin for 7 days. These stably transduced SW480 cells were expanded in cell culture and used for all further screening activities. […] For Sp5-Luc reporter gene assays, the cells were plated at 4,000 cells/well in 384-well plates with a DMEM medium containing 1% fetal bovine serum, and 1% Penicillin-Streptomycin and incubated for 36 to 48 hours at 37° C. and 5% CO2. Following incubation, 15 μl of BriteLite Plus luminescence reagent (Perkin Elmer) was added to each well of the 384-well assay plates. The plates were placed on an orbital shaker for 2 min and then luminescence was quantified using the Envision (Perkin Elmer) plate reader. Readings were normalized to DMSO only treated cells, and normalized activities were utilized for EC50 calculations using the dose-response log (inhibitor) vs. response-variable slope (four parameters) nonlinear regression feature available in GraphPad Prism 5.0 (or Dotmatics).

[5] = system: LL29 cells (primary human fibroblasts derived from IPF patients), α-smooth muscle actin; test: Inhibition of fibrotic process: TGF-β1-treated primary human fibroblasts, αSMA staining; assay type: cell-based; settings: for EC50: TGF-β1 20 ng/mL, 4 days, % cells positive for αSMA; for inhibition at 10 µM: read-out: percent inhibition at 10 μM (given for EC50 >10 μM), TGF-β1, αSMA, 10 μM;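 as to all read-outs here: controls were TGF-β1-stimulated wells with DMSO vehicle as the positive reference and cells given DMSO alone as the negative reference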
[6] = GSK3β kinase, head says EC50, method says IC50, ATP 46 μM
[7] = DYRK1A kinase, head says EC50, method says IC50, ATP 30 μM

EC50 (recombinant GSK3β kinase; [6])	EC50 ([1]; Homo sapiens, 96 h)	EC50 ([2]; Homo sapiens, PBMC)	EC50 [3, 7]	EC50 ([4]; Homo sapiens)	EC50 (recombinant GSK3β kinase)	EC50 [3]	Structure (SMILES)	EC50 ([5]; Homo sapiens, Fibroblast, 96 h)	inhibition at 10 µM ([1]; Homo sapiens, read-out: percent inhibition at 10 μM (given for EC50 >10 μM), 10 μM)	inhibition at 10 µM ([4]; Homo sapiens)	inhibition at 10 µM ([2]; Homo sapiens, PBMC)	inhibition at 10 µM ([5]; Homo sapiens, Fibroblast)	EC50 [1]	EC50 [2]	EC50 [4]	EC50 [5]
> 10000 nM	5860 nM	7160 nM	75 nM	4010 nM	–	–	CN1CCN(c2cc(C(=O)Nc3cc4cc(-c5cc(N)cc(F)c5)ccc4cn3)ccn2)CC1 [Compound 1, N-(6-(3-Amino-5-fluorophenyl)isoquinolin-3-yl)-2-(4-methylpiperazin-1-yl) isonicotinamide]	2300 nM	–	–	–	–	–	–	–	–
> 10000 nM	1380 nM	1330 nM	354 nM	2050 nM	–	–	CC(C)Nc1cc(F)cc(-c2ccc3cnc(NC(=O)c4ccnc(N5CCN(C)CC5)c4)cc3c2)c1 [Compound 2, N-(6-(3-Fluoro-5-(isopropylamino)phenyl)isoquinolin-3-yl)-2-(4-methylpiperazin-1-yl)isonicotinamide]	884 nM	–	–	–	–	–	–	–	–
–	> 10000 nM	6750 nM	–	> 10000 nM	> 10000 nM	242 nM	CN1CCN(c2cc(C(=O)Nc3cc4cc(-c5ccccn5)ccc4cn3)ccn2)CC1 [Compound 4, 2-(4-Methylpiperazin-1-yl)-N-(6-(pyridin-2-yl)isoquinolin-3-yl) isonicotinamide]	3750 nM	21.3%	3.3%	–	–	–	–	–	–
–	9460 nM	> 10000 nM	–	> 10000 nM	> 10000 nM	18 nM	CN1CCN(c2cc(C(=O)Nc3cc4cc(-c5ccncc5)ccc4cn3)ccn2)CC1 [Compound 5, 2-(4-Methylpiperazin-1-yl)-N-(6-(pyridin-4-yl)isoquinolin-3-yl) isonicotinamide]	2450 nM	–	38.5%	4.1%	–	–	–	–	–
–	324 nM	2820 nM	–	159 nM	> 10000 nM	3 nM	CN1CCN(c2cc(C(=O)Nc3cc4cc(-c5cccnc5)ccc4cn3)ccn2)CC1 [Compound 13, 2-(4-Methylpiperazin-1-yl)-N-(6-(pyridin-3-yl)isoquinolin-3-yl) isonicotinamide]	805 nM	–	–	–	–	–	–	–	–
> 10000 nM	9520 nM	> 10000 nM	11 nM	> 10000 nM	–	–	CN1CCN(c2cc(C(=O)Nc3cc4cc(-c5cncc(F)c5)ccc4cn3)ccn2)CC1 [Compound 24, N-(6-(5-Fluoropyridin-3-yl)isoquinolin-3-yl)-2-(4-methylpiperazin-1-yl) isonicotinamide]	2770 nM	–	20.2%	2.8%	–	–	–	–	–
> 10000 nM	8870 nM	> 10000 nM	> 10000 nM	> 10000 nM	–	–	CN1CCN(c2cc(C(=O)Nc3cc4cc(-c5cncc(Cl)c5)ccc4cn3)ccn2)CC1 [Compound 25, N-(6-(5-Chloropyridin-3-yl)isoquinolin-3-yl)-2-(4-methylpiperazin-1-yl) isonicotinamide]	> 10000 nM	–	8.9%	4.6%	44.8%	–	–	–	–
> 10000 nM	8700 nM	> 10000 nM	> 10000 nM	9690 nM	–	–	CN1CCN(CC(=O)Nc2cc3cc(-c4ccc(C(F)(F)F)nc4)ccc3cn2)CC1 [Compound 30, 2-(4-Methylpiperazin-1-yl)-N-(6-(6-(trifluoromethyl)pyridin-3-yl)isoquinolin-3-yl)acetamide]	> 10000 nM	–	–	5.2%	24.9%	–	–	–	–
> 10000 nM	1190 nM	2140 nM	4 nM	1040 nM	–	–	COc1cncc(-c2ccc3cnc(NC(=O)c4ccnc(N5CCN(C)CC5)c4)cc3c2)c1 [Compound 34, N-(6-(5-Methoxypyridin-3-yl)isoquinolin-3-yl)-2-(4-methylpiperazin-1-yl) isonicotinamide]	507 nM	–	–	–	–	–	–	–	–
> 10000 nM	1160 nM	1010 nM	10 nM	1380 nM	–	–	O=C(Nc1cc2cc(-c3cncc(OC4CCNCC4)c3)ccc2cn1)c1ccc(F)cc1 [Compound 35, 4-Fluoro-N-(6-(5-(piperidin-4-yloxy)pyridin-3-yl)isoquinolin-3-yl) benzamide]	2800 nM	–	–	–	–	–	–	–	–
8860 nM	493 nM	1220 nM	2 nM	379 nM	–	–	Nc1cncc(-c2ccc3cnc(NC(=O)c4ccc(F)cc4)cc3c2)c1 [Compound 36, N-(6-(5-Aminopyridin-3-yl)isoquinolin-3-yl)-4-fluorobenzamide]	292 nM	–	–	–	–	–	–	–	–
4620 nM	81 nM	662 nM	1 nM	109 nM	–	–	Nc1cncc(-c2ccc3cnc(NC(=O)c4ccc(OC5CCNCC5)cc4)cc3c2)c1 [Compound 37, N-(6-(5-Aminopyridin-3-yl)isoquinolin-3-yl)-4-(piperidin-4-yloxy) benzamide]	> 10000 nM	–	–	–	39.5%	–	–	–	–
–	225 nM	765 nM	–	75 nM	> 10000 nM	2 nM	CN1CCN(c2cc(C(=O)Nc3cc4cc(-c5cncc(N)c5)ccc4cn3)ccn2)CC1 [Compound 38, N-(6-(5-Aminopyridin-3-yl)isoquinolin-3-yl)-2-(4-methylpiperazin-1-yl) isonicotinamide]	603 nM	–	–	–	–	–	–	–	–
–	–	–	–	–	–	–	CC(C)CCN1CCC(C(=O)Nc2cc3cc(-c4cncc(NC(C)C)n4)ccc3cn2)CC1 [Compound 91, 1-Isopentyl-N-(6-(6-(isopropylamino)pyrazin-2-yl)isoquinolin-3-yl) piperidine-4-carboxamide]	–	–	–	–	–	6890 nM	446 nM	718 nM	19 nM

Structure (SMILES)	EC50 (recombinant GSK3β kinase; [6])	EC50 ([1]; Homo sapiens, 96 h)	EC50 ([2]; Homo sapiens, PBMC)	EC50 [3, 7]	EC50 ([4]; Homo sapiens)	EC50 (recombinant GSK3β kinase)	EC50 [3]	EC50 ([5]; Homo sapiens, Fibroblast, 96 h)	inhibition at 10 µM ([1]; Homo sapiens, read-out: percent inhibition at 10 μM (given for EC50 >10 μM), 10 μM)	inhibition at 10 µM ([4]; Homo sapiens)	inhibition at 10 µM ([2]; Homo sapiens, PBMC)	inhibition at 10 µM ([5]; Homo sapiens, Fibroblast)	EC50 [1]	EC50 [2]	EC50 [4]	EC50 [5]
CC(C)Nc1cncc(-c2ccc3cnc(NC(=O)C4CCN(CCF)CC4)cc3c2)n1 [Compound 89, 1-(2-Fluoroethyl)-N-(6-(6-(isopropylamino)pyrazin-2-yl)isoquinolin-3-yl) piperidine-4-carboxamide]	14 nM	–	–	–	–	–	–	–	–	–	–	–	447 nM	390 nM	178 nM	3910 nM
